Entries after “also recorded” stand apart in the source; their conditions may differ. Where two headings read alike, the source gives them in different places. Some results are limits rather than exact numbers.

A word on the IC50: it is the concentration that gives 50% inhibition. The term viability denotes the share of living cells, or the viability signal relative to a control. Low values mean a greater loss of cells, high ones better survival.

The target in data set [1] is T1, α-glucosidase (Saccharomyces cerevisiae, UniProt P53341).
T1 construct: purchased Sigma, St. Louis, MO, USA G5003
T1 sequence (P53341 whole entry): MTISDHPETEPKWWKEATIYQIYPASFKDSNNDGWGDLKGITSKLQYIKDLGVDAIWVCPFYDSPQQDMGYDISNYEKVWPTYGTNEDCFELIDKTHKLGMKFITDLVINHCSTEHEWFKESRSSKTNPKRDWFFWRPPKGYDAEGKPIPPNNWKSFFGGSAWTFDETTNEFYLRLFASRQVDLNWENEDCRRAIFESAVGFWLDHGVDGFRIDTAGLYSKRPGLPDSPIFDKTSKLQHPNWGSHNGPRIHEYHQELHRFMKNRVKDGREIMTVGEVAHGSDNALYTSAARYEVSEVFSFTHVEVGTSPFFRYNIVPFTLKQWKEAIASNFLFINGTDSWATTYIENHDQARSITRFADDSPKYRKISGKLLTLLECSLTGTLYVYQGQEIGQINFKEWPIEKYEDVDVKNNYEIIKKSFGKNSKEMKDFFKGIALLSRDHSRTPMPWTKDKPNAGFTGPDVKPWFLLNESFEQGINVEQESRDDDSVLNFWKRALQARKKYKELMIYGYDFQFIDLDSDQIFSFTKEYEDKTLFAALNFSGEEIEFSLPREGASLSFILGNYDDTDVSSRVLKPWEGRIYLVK
The data set is described as follows: biochemical. As to conditions: for inhibition at 200 µg/mL: read-out: α-Glucosidase Inhibitory Activity % Inhibition at 200 µg/mL. The method, then: A colorimetric α-glucosidase assay was carried out by the previously described procedure. Briefly, the sample solution was dissolved in DMSO after the solutions were diluted with a phosphate buffer (100 mM KH2PO4, pH 6.9) become DMSO (10%, v/v) concentration. The substrate, p-nitrophenyl α-D-glucoside (Sigma, St. Louis, USA, CAS No. N1377), (c 1.5 mM), was prepared by dissolving with phosphate buffer. The tested samples (50 uL) were combined with 100 μL of the α-glucosidase enzyme solution (0.35 U/mL, Sigma, St. Louis, MO, USA, CAS. No. G5003), then the mixture was pre-incubated for 10 min at 37 °C. The enzymatic reaction was started by applying substrate (100 μL, c 1.5 mM) into the mixture and incubated at 37 °C for 20 min. The reaction was subsequently terminated by the addition of Na2CO3 (1 mL, c 1 M). The absorption was immediately measured at 405 nm by determining the quantity of p-nitrophenol released from the substrate.

Data set [2] has as its system NO production in RAW 264.7 cells. As to the kind of experiment: nitric oxide (NO) production inhibitory activity in LPS-treated RAW 264.7 cells (Griess reaction). The data set is classed as cell-based. Particulars: for inhibition at 50 µg/mL: read-out: Anti-Inflammatory (NO Production Inhibitory Activity) % Inhibition at 50 µg/mL; for NO production inhibitory activity (in words): RAW 264.7 macrophage cells. The method, then:
The NO inhibitory activity was performed using the same procedure as previously reported. RAW 264.7 (American Type Culture Collection, Manassas, VA, USA) were seeded at 4 × 10^4 cells/well in 96 well plates suspended in 100 μL DMEM supplemented with 10% FBS and incubated at 37 °C 5% CO2 overnight. Cells were incubated with 1 µg/mL LPS for 1 h and treated with various concentrations of sample compounds and vehicle control (DMSO) for 24 h. After 24 h, the NO production inhibitory was determined in the culture supernatant using the Griess reaction by adding 100 µL of Griess reagent in a 96 well plate for 10 min. The determination of nitric oxide was measured at 570 nm with Biochrom EZ Read 400 ELISA microplate reader (Biochrom Ltd., Cambridge, United Kingdom). Additionally, the data were presented as IC50 which was calculated with GraphPad Prism 6.0 software.
Background: Nitrite, measured by Griess reagent, commonly stands in for NO production.

A short description of data set [3]: cytotoxicity / cell viability MTT assay. The class given is cell-based. As to conditions: mouse, RAW 264.7 cells, RAW 264.7, 24 h. The method, then: (§1) Cell viability studies were evaluated by the MTT (3-[4,5-dimethylthiazol-2-yl]-2,5-diphenyl tetrazolium bromide) assay. In brief, RAW 264.7 cells (5 × 10^4 cells/well) were cultured and incubated in 96-well plates for 24 h. The samples were prepared in DMSO at different concentrations ([…]). The cells were then treated with samples in DMEM medium (10% FBS, […] streptomycin, and 100 IU/mL penicillin at 37 °C in a 5% CO2) for 24 h. The medium was then removed and each well was filled with fresh DMEM containing 0.5 mg/mL MTT solution for 4 h at 37 °C in a 5% CO2. After that, the medium was removed, and the formazan precipitate was dissolved in DMSO [21]. The absorbance was measured at 550 nm on a microplate reader. All processes were performed in triplicate.

The subject of data set [4] is RAW 264.7 cells. The data set is described as follows: cytotoxicity / cell viability MTT assay. The class given is cell-based. The method, then: as §1
(Tetrazolium assays rely on reduction of a dye to a coloured formazan, in cell work by metabolically active cells.)

The mark [5] stands for this setting: Mus musculus, RAW264.7, LPS 1 µg/mL, 24 h.
[6] abbreviates: read-out: α-Glucosidase Inhibitory Activity IC50.

For `COC(=O)C[C@@]12OC(=O)C[C@@H](C)[C@@H]1Oc1cccc(O)c1C2=O` (relative stereo) [Compound 1, Daldiniaeschsone A], in data set [1], the IC50 came to 160 ± 110 µM and the inhibition at 200 µg/mL was 98.7%. Also, the “Anti-Inflammatory (NO Production Inhibitory Activity) IC50” value in data set [2] (LPS 1 µg/mL, 24 h) is “inactive”. In addition, the inhibition at 50 µg/mL in data set [2] (setting [5]) came to 26.5%. Also, the “NO production inhibitory activity (in words)” value in data set [2] is “no NO production inhibitory activities”. Also, the viability at 24 h, 50 µg/mL in data set [3] is over 75%. The “cytotoxicity against RAW 264.7 cells at 50 µg/mL (in words)” value in data set [4] is “without toxicity; also recorded: no cytotoxicity”.
As for `C[C@H]1O[C@H](O[C@H]2[C@H](O)[C@@H](O)[C@@H](O[C@H]3[C@H](O)[C@@H](O)C(O)O[C@@H]3CO)O[C@@H]2CO)[C@H](O)[C@@H](O)[C@@H]1N[C@H]1C=C(CO)[C@@H](O)[C@H](O)[C@H]1O` (some centres unmarked) [Acarbose, reference compound], in data set [1], the inhibition at 200 µg/mL was 95.6%.
Regarding `COC(=O)C[C@@]12OC(=O)C[C@@H](C)[C@@H]1Oc1ccc(-c3ccc4c(c3O)C(=O)[C@]3(CC(=O)OC)OC(=O)C[C@@H](C)[C@@H]3O4)c(O)c1C2=O` [Compound 2, Daldiniaeschsone B], in data set [1], the IC50 stood at 230 µM and the inhibition at 200 µg/mL is 96.8%. In addition, in data set [2] (LPS 1 µg/mL, 24 h), the “Anti-Inflammatory (NO Production Inhibitory Activity) IC50” value is “inactive”. The inhibition at 50 µg/mL in data set [2] (setting [5]) came to 36.9%. For the same compound, in data set [2], the “NO production inhibitory activity (in words)” value is given as “no NO production inhibitory activities”. Moreover, in data set [4], the “cytotoxicity against RAW 264.7 cells at 50 µg/mL (in words)” value is listed as “without toxicity; also recorded: no cytotoxicity”.
As to `O=C1CC[C@H](O)c2cccc(O)c21` [Compound 3, (+)-regiolone], the inhibition at 200 µg/mL in data set [1] was 97.8%. Besides, in data set [1] (setting [6]), the IC50 is 850 ± 1190 µM.
As to `O=C1C[C@@H](O)[C@@H](O)c2cccc(O)c21` [Compound 4, (+)-3,4-dihydro-3,4,8-trihydroxy-1(2H)-naphthalenone], the inhibition at 200 µg/mL in data set [1] was 97.8%. Moreover, in data set [1] (setting [6]), the IC50 was found to be 550 ± 1330 µM.
In the same order, the values of `C[C@H]1Cc2cccc(O)c2C(=O)O1` [Compound 5, (+)-mellein] are 97.5% and 760 ± 90 µM.
In the case of `COc1ccc2c(c1)c(CC(=O)O)c(C)n2C(=O)c1ccc(Cl)cc1` [Indomethacin, reference compound], the inhibition at 50 µg/mL in data set [2] (setting [5]) came out at 71%. The concentration for half-maximal inhibition (IC50) in data set [2] (Mus musculus, RAW264.7, LPS 1 µg/mL, 24 h, read-out: Anti-Inflammatory (NO Production Inhibitory Activity) IC50) came out at 19.6 ± 0.62 µM. In data set [3], this compound showed a viability at 24 h, 50 µg/mL of 85 ± 2.92%.
